Test results published in US7132419B2, “Pharmaceutical compounds” (Xenova Limited, priority 2000, dated 2006).

Tests used:
[1] = tested on: H69 parental (H69/P) human small cell lung carcinoma cell line; experiment: Cytotoxicity, H69 parental cell line (AlamarBlue); type: cell-based; conditions: concentration required to give 50% cell kill, 5–6 days incubation
Experimental: (§1) The cytotoxicity of compounds of formula (I) was measured using the H69 parental (H69/P) human small cell lung carcinoma cell line and the drug resistant human small cell lung carcinoma cell line H69/LX4 which overexpresses P-glycoprotein (Pgp). The cytotoxicity, as measured by the IC50 (concentration required to give 50% cell kill) in the H69/LX4 cell line divided by the cytotoxicity in the H69/P cell line gives an indication of the degree to which a compound is affected by Pgp-dependent MDR and is termed the resistance factor (Rf) of the compound.
(§2) H69/P and H69/LX4 cells were pipetted into 96-well tissue culture plates and then allowed to incubate at 37° C. for 4 h. […] The plates were incubated for 5–6 days before adding AlamarBlue to each well and returning the plates to the incubator for 5–8 h to allow colour development. The cell numbers in the plates at the end of this period were directly proportional to the absorbance measured at a wavelength of 570 nm (reference wavelength 600 nm).

[2] = tested on: drug resistant human small cell lung carcinoma cell line H69/LX4 which overexpresses P-glycoprotein (Pgp); experiment: Cytotoxicity, drug resistant H69/LX4 cell line (AlamarBlue); type: cell-based; conditions: for IC50: concentration required to give 50% cell kill, 5–6 days incubation; for Rf (resistance factor): IC50 in H69/LX4 divided by IC50 in H69/P, Pgp-dependent MDR
Experimental: as §1, §2

[3] = tested on: COR-L23 parental (COR-L23/P) human non-small cell lung carcinoma cell line; experiment: Cytotoxicity, COR-L23 parental cell line (SRB assay); type: cell-based; conditions: concentration required to give 50% cell kill, 5–6 days incubation
Experimental: (§3) The cytotoxicity of the compounds described herein was also measured using the COR-L23 parental (COR-L23/P) human non-small cell lung carcinoma cell line and also the drug resistant human non-small cell lung carcinoma cell line COR-L23/R which overexpresses multidrug resistance associated protein (MRP). The cytotoxicity, as measured by the IC50 (concentration required to give 50% cell kill) in the L23/R cell line divided by the cytotoxicity in the L23/P cell line gives an indication of the degree to which a compound may be affected by MRP-dependant MDR and is termed the resistance factor (Rf) of the compound.
(§4) L23/P and L23/R cells were pipetted into 96-well tissue culture plates and then allowed to incubate at 37° C. for 4 h. […] The plates were incubated for 5–6 days before proliferation was assessed using the sulphurhodamine B (SRB) assay as described by Skehan et al, J Natl Cancer Inst 1990, 82, pp 1107–1112.

[4] = Cytotoxicity, drug resistant COR-L23/R cell line (SRB assay); type: cell-based, human; conditions: Homo sapiens, COR-L23/R; concentration required to give 50% cell kill; 5–6 days incubation
Experimental: as §3, §4

[5] = tested on: drug resistant human non-small cell lung carcinoma cell line COR-L23/R which overexpresses multidrug resistance associated protein (MRP); experiment: as above; type: cell-based; conditions: for Rf (resistance factor): IC50 in L23/R divided by IC50 in L23/P, MRP-dependant MDR
Experimental: as §3, §4

[6] = tested on: Jurkat human leukaemia cell line (JLC); experiment: Cytotoxicity, Jurkat leukaemia cell line JLC; type: cell-based; conditions: concentration required to give 50% cell kill
Experimental: (§5) The cytotoxicity of the compounds described herein was also measured using the Jurkat human leukaemia cell line (JLC) and also the amsacrine-resistant Jurkat human leukaemia cell line (JLA) and the doxorubicin-resistant Jurkat human leukaemia cell line (JLD). The cytotoxicity, as measured by the IC50 (concentration required to give 50% cell kill) in the JLA or JLD cell line divided by the cytotoxicity in the JLC cell line gives an indication of the degree to which a compound may be affected by atypical drug resistance and is termed the resistance factor (Rf) of the compound. The method used has been described previously (Finlay et al, Eur J. Cancer 32A, 708–714, 1996). Compounds were active in the range 1 nM to 5 μM.

[7] = tested on: amsacrine-resistant Jurkat human leukaemia cell line (JLA); experiment: Cytotoxicity, amsacrine-resistant Jurkat cell line JLA; type: cell-based; conditions: for IC50: concentration required to give 50% cell kill; for Rf (JLA/JLC): IC50 in JLA divided by IC50 in JLC, atypical drug resistance
Experimental: as §5

[8] = tested on: doxorubicin-resistant Jurkat human leukaemia cell line (JLD); experiment: Cytotoxicity, doxorubicin-resistant Jurkat cell line JLD; type: cell-based; conditions: for IC50: concentration required to give 50% cell kill; for Rf (JLD/JLC): IC50 in JLD divided by IC50 in JLC, atypical drug resistance
Experimental: as §5

[9] = molecular target: T1, topoisomerase I (Homo sapiens, UniProt P11387); experiment: Stabilisation of cleavable complexes, topoisomerase I; type: biochemical; conditions: range where an increase in cleavable complexes was observed relative to controls in the absence of drug
T1 sequence (P11387 1-765): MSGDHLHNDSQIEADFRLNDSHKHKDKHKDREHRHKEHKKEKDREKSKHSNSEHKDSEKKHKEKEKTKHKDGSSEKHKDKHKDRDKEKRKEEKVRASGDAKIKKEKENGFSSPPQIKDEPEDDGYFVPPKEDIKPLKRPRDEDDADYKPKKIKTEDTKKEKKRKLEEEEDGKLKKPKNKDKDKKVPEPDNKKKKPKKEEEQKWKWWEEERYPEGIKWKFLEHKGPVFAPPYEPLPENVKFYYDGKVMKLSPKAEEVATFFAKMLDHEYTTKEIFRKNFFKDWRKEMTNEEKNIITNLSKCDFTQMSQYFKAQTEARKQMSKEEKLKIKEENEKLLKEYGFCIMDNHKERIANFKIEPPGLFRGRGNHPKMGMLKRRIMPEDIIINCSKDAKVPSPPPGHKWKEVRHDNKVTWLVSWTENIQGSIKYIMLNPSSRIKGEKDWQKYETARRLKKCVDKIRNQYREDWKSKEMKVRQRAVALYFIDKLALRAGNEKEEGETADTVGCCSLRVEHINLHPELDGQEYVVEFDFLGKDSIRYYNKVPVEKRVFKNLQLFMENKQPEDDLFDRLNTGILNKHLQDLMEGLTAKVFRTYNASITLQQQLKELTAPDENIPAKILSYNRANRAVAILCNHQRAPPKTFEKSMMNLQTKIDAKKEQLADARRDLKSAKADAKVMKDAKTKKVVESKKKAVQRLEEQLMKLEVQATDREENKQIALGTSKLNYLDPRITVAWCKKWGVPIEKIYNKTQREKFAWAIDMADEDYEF
From the text: (§6) Compounds were also studied for their ability to stabilize cleavable complexes in the presence of either topoisomerase I or II essentially as described previously (Finlay et al, Eur J. Cancer 32A, 708–714, 1996). Presence of cleavable complexes was indicated by an increase in the number and intensity of bands observed after electrophoresis and autoradiography. The results are expressed as the effective concentration range where an increase in cleavable complexes was observed relative to controls in the absence of drug.

[10] = tested on: topoisomerase II; experiment: Stabilisation of cleavable complexes, topoisomerase II; type: biochemical; conditions: range where an increase in cleavable complexes was observed relative to controls in the absence of drug
From the text: as §6

SMILES	IC50 ([1]; Homo sapiens)	IC50 ([2]; Homo sapiens)	Rf (resistance factor) [2]	IC50 ([3]; Homo sapiens, COR-L23)	IC50 [4]	Rf (resistance factor) [5]	IC50 ([6]; Homo sapiens, Jurkat)	IC50 ([7]; Homo sapiens, Jurkat)	Rf (JLA/JLC) [7]	IC50 ([8]; Homo sapiens, Jurkat)	Rf (JLD/JLC) [8]	Effective concentration range, Topoisomerase I [9]	Effective concentration range, Topoisomerase II [10]	IC50 [1]	IC50 [2]	IC50 [3]	IC50 ([5]; concentration required to give 50% cell kill, 5–6 days incubation)	IC50 [6]	IC50 [7]	IC50 [8]
COc1cccc2c1ccc1nc3cccc(C(=O)N[C@H](C)CN(C)C)c3nc12 [Compound 78, 4-Methoxy-benzo[a]phenazine-11-carboxylic acid (2-dimethylamino-1-(R)-methyl-ethyl)-amide]	24 nM	31 nM	1.3	7.6 nM	8.9 nM	1.2	21 nM	14 nM	0.7	17 nM	0.8	0.03 to 1.0 µM	0.03 to 1.0 µM	–	–	–	–	–	–	–
COc1cccc2c1ccc1nc3cccc(C(=O)NCCN(C)C)c3nc12 [Compound 3, 4-Methoxy-benzo[a]phenazine-11-carboxylic acid (2-dimethylamino-ethyl)-amide]	35 nM	49 nM	1.4	14.4 nM	19.9 nM	1.4	27 nM	21.6 nM	0.8	24.3 nM	0.9	0.1 to 3.0 µM	0.1 to 3.0 µM	–	–	–	–	–	–	–
Br.CN(C)CCNC(=O)c1cccc2nc3ccc4c(O)cccc4c3nc12 [Compound 4, 4-Hydroxy-benzo[a]phenazine-11-carboxylic acid (2-dimethylamino-ethyl)-amide: hydrobromide salt]	–	–	1.4	–	–	1.1	–	–	1.4	–	1.2	0.1 to 3.0 µM	0.1 to 3.0 µM	35 nM	48 nM	14.7 nM	16.8 nM	19 nM	26.6 nM	22.8 nM
